{"source": "patent US20230257347A1", "about": "(priority 2020, published 2023)", "key": {"[1]": {"target": "Histamine Receptor H1 (HRH1) (Homo sapiens, UniProt P35367)", "sequence (P35367 whole entry)": "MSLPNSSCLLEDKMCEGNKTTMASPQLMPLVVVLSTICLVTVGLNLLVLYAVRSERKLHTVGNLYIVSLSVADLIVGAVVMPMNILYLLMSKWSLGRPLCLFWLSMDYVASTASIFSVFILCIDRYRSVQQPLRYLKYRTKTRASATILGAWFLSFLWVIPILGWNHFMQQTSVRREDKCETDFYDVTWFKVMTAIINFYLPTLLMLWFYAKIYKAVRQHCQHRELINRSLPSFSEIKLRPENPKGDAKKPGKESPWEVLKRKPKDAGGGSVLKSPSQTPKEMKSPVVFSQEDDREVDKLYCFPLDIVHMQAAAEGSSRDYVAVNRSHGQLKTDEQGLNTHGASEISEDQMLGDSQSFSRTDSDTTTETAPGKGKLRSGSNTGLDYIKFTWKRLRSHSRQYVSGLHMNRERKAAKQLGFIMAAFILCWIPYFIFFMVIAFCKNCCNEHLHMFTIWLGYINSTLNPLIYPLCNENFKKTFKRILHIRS", "assay": "cell-based"}, "[2]": {"target": "T1, 5-Hydroxytryptamine (Serotonin) Receptor 1A (5-HT1A) (Homo sapiens, UniProt P08908)", "T1 sequence (P08908 1-422)": "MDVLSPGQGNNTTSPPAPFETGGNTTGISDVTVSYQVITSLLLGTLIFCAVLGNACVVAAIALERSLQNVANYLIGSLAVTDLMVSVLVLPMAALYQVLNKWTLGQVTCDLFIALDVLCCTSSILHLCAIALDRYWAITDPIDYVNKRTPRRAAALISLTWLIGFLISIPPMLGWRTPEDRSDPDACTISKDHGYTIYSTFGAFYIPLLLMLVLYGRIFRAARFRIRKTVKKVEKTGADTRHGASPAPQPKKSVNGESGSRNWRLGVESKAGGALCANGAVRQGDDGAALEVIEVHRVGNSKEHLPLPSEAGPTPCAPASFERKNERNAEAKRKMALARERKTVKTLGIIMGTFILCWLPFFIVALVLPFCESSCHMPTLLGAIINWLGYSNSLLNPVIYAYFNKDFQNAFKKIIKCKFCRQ", "assay": "cAMP secondary messenger assay, 5-HT1A", "type": "cell-based"}, "[3]": {"target": "T2, Nuclear Hormone Androgen Receptor (AR) (Homo sapiens, UniProt P10275)", "T2 sequence (P10275 1-920)": "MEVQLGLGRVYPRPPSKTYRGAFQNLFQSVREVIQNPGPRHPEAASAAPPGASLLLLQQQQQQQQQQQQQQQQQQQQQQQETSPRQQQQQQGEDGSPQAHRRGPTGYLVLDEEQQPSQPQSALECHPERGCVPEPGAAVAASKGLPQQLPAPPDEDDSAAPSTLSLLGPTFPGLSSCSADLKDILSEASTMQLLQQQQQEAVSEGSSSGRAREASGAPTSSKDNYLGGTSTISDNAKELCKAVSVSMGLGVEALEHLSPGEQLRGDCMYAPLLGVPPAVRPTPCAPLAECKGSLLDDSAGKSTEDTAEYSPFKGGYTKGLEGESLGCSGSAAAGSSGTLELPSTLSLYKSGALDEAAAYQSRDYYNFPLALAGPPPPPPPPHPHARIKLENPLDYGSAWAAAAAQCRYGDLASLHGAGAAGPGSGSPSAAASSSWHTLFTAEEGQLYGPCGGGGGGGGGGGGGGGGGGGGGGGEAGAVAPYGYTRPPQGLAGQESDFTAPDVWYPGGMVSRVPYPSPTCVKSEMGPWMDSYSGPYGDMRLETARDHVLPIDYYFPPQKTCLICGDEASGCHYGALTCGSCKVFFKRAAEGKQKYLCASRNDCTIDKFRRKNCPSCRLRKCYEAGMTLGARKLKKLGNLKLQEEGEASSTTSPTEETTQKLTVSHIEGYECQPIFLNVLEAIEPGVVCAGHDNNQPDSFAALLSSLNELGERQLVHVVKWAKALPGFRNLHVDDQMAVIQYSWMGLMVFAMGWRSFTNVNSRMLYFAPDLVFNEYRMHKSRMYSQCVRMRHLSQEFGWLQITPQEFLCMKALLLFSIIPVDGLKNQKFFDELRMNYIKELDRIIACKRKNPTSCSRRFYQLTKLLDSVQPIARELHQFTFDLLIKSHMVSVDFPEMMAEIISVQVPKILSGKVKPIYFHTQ", "assay": "NHR Nuclear Translocation assay, AR", "type": "cell-based"}, "[4]": {"target": "Arginine Vasopressin Receptor 1A (AVPR1A) (Homo sapiens, UniProt P37288)", "sequence (P37288 whole entry)": "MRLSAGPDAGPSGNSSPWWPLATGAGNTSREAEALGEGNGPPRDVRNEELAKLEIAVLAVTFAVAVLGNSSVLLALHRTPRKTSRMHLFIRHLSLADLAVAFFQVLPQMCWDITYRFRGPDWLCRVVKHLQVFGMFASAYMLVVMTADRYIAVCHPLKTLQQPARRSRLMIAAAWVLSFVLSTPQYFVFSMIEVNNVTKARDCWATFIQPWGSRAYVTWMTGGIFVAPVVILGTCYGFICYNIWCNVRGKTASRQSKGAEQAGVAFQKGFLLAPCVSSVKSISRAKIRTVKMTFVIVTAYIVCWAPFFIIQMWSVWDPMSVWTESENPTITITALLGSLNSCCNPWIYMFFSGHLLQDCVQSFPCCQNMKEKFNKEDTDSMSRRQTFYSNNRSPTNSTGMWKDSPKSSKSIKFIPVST", "assay": "Calcium flux assay, AVPR1A", "type": "cell-based"}, "[5]": {"target": "T3, Adrenergic Receptor α1A (ADRA1A) (Homo sapiens, UniProt P35348)", "T3 sequence (P35348 1-466)": "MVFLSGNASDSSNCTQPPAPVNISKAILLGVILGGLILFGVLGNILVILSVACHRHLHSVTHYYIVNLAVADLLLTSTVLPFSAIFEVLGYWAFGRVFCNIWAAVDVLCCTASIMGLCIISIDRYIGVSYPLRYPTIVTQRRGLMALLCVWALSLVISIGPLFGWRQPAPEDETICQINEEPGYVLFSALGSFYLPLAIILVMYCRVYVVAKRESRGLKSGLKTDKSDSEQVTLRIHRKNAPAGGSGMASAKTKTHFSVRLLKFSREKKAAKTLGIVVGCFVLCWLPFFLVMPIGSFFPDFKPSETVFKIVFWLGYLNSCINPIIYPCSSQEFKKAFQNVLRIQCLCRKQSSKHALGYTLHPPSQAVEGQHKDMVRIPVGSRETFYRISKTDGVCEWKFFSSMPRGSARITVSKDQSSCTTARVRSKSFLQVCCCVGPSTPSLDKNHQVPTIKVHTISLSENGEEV", "assay": "Calcium flux assay, ADRA1A", "type": "cell-based"}, "hERG": {"target": "T4, hERG (Homo sapiens, UniProt Q12809)", "T4 construct": "expressed in transfected cells", "T4 sequence (Q12809 whole entry)": "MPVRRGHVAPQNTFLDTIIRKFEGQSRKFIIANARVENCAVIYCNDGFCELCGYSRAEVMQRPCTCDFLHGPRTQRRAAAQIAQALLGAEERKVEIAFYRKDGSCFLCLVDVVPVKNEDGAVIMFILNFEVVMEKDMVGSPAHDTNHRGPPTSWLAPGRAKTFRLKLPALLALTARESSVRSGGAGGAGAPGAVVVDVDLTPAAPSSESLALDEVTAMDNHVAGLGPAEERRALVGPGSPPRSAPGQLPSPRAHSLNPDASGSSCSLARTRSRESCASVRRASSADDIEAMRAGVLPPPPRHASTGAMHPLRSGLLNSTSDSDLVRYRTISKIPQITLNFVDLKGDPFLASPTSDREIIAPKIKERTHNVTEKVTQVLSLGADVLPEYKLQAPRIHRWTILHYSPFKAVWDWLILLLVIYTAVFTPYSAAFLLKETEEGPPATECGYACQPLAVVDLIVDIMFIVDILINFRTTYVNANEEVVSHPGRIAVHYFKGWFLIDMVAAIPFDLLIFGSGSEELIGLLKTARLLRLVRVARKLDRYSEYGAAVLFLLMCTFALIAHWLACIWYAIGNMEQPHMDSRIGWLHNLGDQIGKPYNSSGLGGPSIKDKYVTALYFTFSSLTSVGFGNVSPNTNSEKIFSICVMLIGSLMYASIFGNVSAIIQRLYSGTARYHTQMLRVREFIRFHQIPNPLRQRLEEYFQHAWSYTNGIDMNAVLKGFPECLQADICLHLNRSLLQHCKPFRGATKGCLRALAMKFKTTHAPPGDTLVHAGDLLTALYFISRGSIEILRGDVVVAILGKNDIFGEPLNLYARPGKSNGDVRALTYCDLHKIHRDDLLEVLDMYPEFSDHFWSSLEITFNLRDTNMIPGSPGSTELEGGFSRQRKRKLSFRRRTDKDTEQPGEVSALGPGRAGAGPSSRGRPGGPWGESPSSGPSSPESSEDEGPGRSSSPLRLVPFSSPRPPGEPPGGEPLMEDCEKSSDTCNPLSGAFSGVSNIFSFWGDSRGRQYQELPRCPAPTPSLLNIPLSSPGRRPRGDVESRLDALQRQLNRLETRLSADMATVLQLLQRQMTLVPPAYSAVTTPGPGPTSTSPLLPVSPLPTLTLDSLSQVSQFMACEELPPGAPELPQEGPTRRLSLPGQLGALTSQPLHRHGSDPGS", "assay": "Ion channel assay, hERG", "type": "cell-based"}, "Cyclooxygenase 1 (COX1)": {"target": "T5, Cyclooxygenase 1 (COX1) (Homo sapiens, UniProt P23219)", "T5 construct": "purchased BPS Bioscience", "T5 sequence (P23219 24-599)": "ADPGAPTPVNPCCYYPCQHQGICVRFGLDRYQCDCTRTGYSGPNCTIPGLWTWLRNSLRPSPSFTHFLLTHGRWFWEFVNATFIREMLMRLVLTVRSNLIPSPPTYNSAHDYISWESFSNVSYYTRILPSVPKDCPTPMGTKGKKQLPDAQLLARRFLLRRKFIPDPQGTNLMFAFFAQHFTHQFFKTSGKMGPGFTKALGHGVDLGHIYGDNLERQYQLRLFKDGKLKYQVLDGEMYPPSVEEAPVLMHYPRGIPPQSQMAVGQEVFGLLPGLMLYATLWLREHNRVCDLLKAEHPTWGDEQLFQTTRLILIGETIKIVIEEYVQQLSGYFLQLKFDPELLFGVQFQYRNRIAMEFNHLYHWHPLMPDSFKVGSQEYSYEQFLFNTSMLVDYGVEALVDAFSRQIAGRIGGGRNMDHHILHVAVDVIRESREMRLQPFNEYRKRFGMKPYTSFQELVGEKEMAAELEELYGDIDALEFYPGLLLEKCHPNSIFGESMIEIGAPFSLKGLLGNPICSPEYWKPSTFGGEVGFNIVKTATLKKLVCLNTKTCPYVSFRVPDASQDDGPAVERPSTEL", "assay": "Enzymatic assay, COX1", "type": "biochemical"}, "[6]": {"target": "Opioid Receptor Kappa 1 (OPRK1) (Homo sapiens, UniProt P41145)", "sequence (P41145 whole entry)": "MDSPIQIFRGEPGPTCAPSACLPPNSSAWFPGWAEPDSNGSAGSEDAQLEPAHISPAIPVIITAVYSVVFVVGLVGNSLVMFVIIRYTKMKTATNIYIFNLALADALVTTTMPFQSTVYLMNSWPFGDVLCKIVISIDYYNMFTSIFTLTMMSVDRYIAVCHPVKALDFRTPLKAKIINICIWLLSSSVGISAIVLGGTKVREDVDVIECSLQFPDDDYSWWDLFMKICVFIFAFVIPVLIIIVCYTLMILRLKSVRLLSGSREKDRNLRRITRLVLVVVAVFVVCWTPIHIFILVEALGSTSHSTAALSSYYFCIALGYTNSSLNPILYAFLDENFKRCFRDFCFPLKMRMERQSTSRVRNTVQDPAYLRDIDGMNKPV", "assay": "cAMP assay, OPRK1", "type": "cell-based"}, "[7]": {"target": "T6, N-methyl-D-aspartate (NMDA) Glutamate Receptor 1A/2B (NMDAR (1A/2B)) (Homo sapiens, UniProt Q05586+Q13224)", "T6 construct": "expressed in transfected cells", "T6 sequence (Q13224 27-1484, other chains not shown)": "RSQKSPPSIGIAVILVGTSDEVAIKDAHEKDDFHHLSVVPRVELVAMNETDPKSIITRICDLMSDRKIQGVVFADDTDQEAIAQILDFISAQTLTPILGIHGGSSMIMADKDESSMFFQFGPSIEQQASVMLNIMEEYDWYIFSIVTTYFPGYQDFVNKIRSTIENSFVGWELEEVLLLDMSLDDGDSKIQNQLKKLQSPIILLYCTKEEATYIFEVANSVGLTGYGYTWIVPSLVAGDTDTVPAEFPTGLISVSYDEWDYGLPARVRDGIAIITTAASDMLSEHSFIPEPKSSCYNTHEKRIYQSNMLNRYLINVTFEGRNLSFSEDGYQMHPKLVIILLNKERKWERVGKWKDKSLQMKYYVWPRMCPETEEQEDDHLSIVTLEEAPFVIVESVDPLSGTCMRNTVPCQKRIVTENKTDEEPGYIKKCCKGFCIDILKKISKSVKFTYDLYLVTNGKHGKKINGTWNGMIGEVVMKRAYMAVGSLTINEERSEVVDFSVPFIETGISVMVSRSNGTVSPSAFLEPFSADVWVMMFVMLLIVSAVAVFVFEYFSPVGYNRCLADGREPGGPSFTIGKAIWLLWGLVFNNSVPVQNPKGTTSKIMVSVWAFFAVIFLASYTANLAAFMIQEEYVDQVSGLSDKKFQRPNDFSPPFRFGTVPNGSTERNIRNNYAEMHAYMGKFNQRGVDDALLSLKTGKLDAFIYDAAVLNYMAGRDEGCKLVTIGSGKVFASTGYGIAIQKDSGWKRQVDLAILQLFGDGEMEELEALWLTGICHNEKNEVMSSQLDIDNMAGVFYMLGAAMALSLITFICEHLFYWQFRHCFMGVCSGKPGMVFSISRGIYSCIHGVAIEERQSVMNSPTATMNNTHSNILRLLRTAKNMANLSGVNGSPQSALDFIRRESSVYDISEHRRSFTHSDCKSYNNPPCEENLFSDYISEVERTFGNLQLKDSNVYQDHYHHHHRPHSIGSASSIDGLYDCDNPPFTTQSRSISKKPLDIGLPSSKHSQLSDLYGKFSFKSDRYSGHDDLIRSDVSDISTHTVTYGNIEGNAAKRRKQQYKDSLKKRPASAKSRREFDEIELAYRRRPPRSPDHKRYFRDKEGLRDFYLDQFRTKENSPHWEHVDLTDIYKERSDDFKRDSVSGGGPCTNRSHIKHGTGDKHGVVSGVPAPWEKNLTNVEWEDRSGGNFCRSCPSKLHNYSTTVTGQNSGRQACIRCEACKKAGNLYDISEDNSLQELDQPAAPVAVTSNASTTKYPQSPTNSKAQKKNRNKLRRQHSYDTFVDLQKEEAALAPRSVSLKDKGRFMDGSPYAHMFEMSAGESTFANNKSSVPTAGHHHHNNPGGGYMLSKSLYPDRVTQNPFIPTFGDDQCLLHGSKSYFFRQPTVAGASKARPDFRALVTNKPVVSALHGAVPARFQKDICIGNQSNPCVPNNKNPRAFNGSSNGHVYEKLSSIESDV", "assay": "Ion channel assay, NMDAR (1A/2B)", "type": "cell-based"}, "MDMA-trained rats": {"test_system": "MDMA-trained rats", "assay": "Drug discrimination in rats trained to distinguish MDMA from placebo", "type": "in vivo", "details": "1, 2, and 4 mg/kg intraperitoneal"}}, "note": "Counter-ions that a name gives are not always drawn.", "data": [{"compound": "CNC(C)C(=O)c1c[nH]c2ccc(Br)cc12", "note": "(centres unmarked) [BK-5Br-NM-AMT, 1-(5-bromo-1H-indol-3-yl)-2-(methylamino) propan-1-one hydrochloride]", "values": [{"measurement": "EC50", "setting": "[1]", "result": "> 10", "unit": "µM"}, {"measurement": "IC50", "setting": "[1]", "result": "> 10", "unit": "µM"}, {"measurement": "EC50", "setting": "[2]", "result": "> 10", "unit": "µM"}, {"measurement": "IC50", "setting": "[2]", "result": "> 10", "unit": "µM"}, {"measurement": "EC50", "setting": "[3]", "result": "> 10", "unit": "µM"}, {"measurement": "IC50", "setting": "[3]", "result": "> 10", "unit": "µM"}, {"measurement": "EC50", "setting": "[4]", "result": "> 10", "unit": "µM"}, {"measurement": "IC50", "setting": "[4]", "result": "> 10", "unit": "µM"}, {"measurement": "EC50", "setting": "[5]", "result": 8.24, "unit": "µM"}, {"measurement": "IC50", "setting": "[5]", "result": "> 10", "unit": "µM"}, {"measurement": "IC50", "setting": "hERG", "result": "> 10", "unit": "µM"}, {"measurement": "IC50", "setting": "Cyclooxygenase 1 (COX1)", "result": "> 10", "unit": "µM"}, {"measurement": "EC50", "setting": "[6]", "result": "> 10", "unit": "µM"}, {"measurement": "IC50", "setting": "[6]", "result": "> 10", "unit": "µM"}, {"measurement": "EC50", "setting": "[7]", "result": "> 10", "unit": "µM"}, {"measurement": "IC50", "setting": "[7]", "result": "> 10", "unit": "µM"}]}, {"compound": "CNC(C)C(=O)c1c[nH]c2ccc(Cl)cc12", "note": "(centres unmarked) [BK-5Cl-NM-AMT, 1-(5-chloro-1H-indol-3-yl)-2-(methylamino) propan-1-one hydrochloride]", "values": [{"measurement": "EC50", "setting": "[1]", "result": "> 10", "unit": "µM"}, {"measurement": "IC50", "setting": "[1]", "result": "> 10", "unit": "µM"}, {"measurement": "EC50", "setting": "[2]", "result": "> 10", "unit": "µM"}, {"measurement": "IC50", "setting": "[2]", "result": "> 10", "unit": "µM"}, {"measurement": "EC50", "setting": "[3]", "result": "> 10", "unit": "µM"}, {"measurement": "IC50", "setting": "[3]", "result": "> 10", "unit": "µM"}, {"measurement": "EC50", "setting": "[4]", "result": "> 10", "unit": "µM"}, {"measurement": "IC50", "setting": "[4]", "result": "> 10", "unit": "µM"}, {"measurement": "EC50", "setting": "[5]", "result": "> 10", "unit": "µM"}, {"measurement": "IC50", "setting": "[5]", "result": "> 10", "unit": "µM"}, {"measurement": "IC50", "setting": "hERG", "result": "> 10", "unit": "µM"}, {"measurement": "IC50", "setting": "Cyclooxygenase 1 (COX1)", "result": "> 10", "unit": "µM"}, {"measurement": "EC50", "setting": "[6]", "result": "> 10", "unit": "µM"}, {"measurement": "IC50", "setting": "[6]", "result": "> 10", "unit": "µM"}, {"measurement": "EC50", "setting": "[7]", "result": "> 10", "unit": "µM"}, {"measurement": "IC50", "setting": "[7]", "result": "> 10", "unit": "µM"}]}, {"compound": "CNC(C)C(=O)c1c[nH]c2ccc(F)cc12", "note": "(centres unmarked) [BK-5F-NM-AMT, 1-(5-Fluoro-1H-indol-3-yl)-2-(methylamino) propan-1-one hydrochloride]", "values": [{"measurement": "EC50", "setting": "[1]", "result": "> 10", "unit": "µM"}, {"measurement": "IC50", "setting": "[1]", "result": "> 10", "unit": "µM"}, {"measurement": "EC50", "setting": "[2]", "result": "> 10", "unit": "µM"}, {"measurement": "IC50", "setting": "[2]", "result": "> 10", "unit": "µM"}, {"measurement": "EC50", "setting": "[3]", "result": "> 10", "unit": "µM"}, {"measurement": "IC50", "setting": "[3]", "result": "> 10", "unit": "µM"}, {"measurement": "EC50", "setting": "[4]", "result": "> 10", "unit": "µM"}, {"measurement": "IC50", "setting": "[4]", "result": "> 10", "unit": "µM"}, {"measurement": "EC50", "setting": "[5]", "result": "> 10", "unit": "µM"}, {"measurement": "IC50", "setting": "[5]", "result": "> 10", "unit": "µM"}, {"measurement": "percent responses on the MDMA-associated lever", "setting": "MDMA-trained rats; 30 min prior to test, four MDMA-trained rats", "result": "significantly and dose-dependently different from those of MDMA"}, {"measurement": "rate of lever pressing (responses per second)", "setting": "MDMA-trained rats; control measure", "result": "not altered"}, {"measurement": "IC50", "setting": "hERG", "result": "> 10", "unit": "µM"}, {"measurement": "IC50", "setting": "Cyclooxygenase 1 (COX1)", "result": "> 10", "unit": "µM"}, {"measurement": "EC50", "setting": "[6]", "result": "> 10", "unit": "µM"}, {"measurement": "IC50", "setting": "[6]", "result": "> 10", "unit": "µM"}, {"measurement": "EC50", "setting": "[7]", "result": "> 10", "unit": "µM"}, {"measurement": "IC50", "setting": "[7]", "result": "> 10", "unit": "µM"}]}]}
